According to patent publication US20250188030A1, “Biphenyl and Phenylpyridine Compounds” (Pfizer Inc., priority 2023, published 2025):
Like-named read-outs stand apart in the source and are kept apart here.

Legend:
H3K9AC (HT1080 cells) = experiment: H3K9AC Sandwich ELISA Assay in HT1080 cells (KAT2A primary cell-based screening assay); design: species or system Human
Method: Human fibrosarcoma cell line HT1080 was obtained from American Type Culture Collection (ATCC), Manassas, VA USA, Cat. HT-1080 (ATCC® CCL-121™). Cells were cultured in MEM (Thermo Fisher Scientific/Gibco Life Technologies Cat. #11-095-080) plus 10% (v/v) FBS (Thermo Fisher Scientific/Gibco Life Technologies Cat. #26140-079) and 1% Penicillin-Streptomycin (Thermo Fisher Scientific/Gibco Life Technologies Cat. #15070063) at 37° C. in 5% CO2.
HT1080 cells were trypsinized, cell viability count performed, and cells suspended in complete media at 100,000 cells/ml. Cells were seeded (100 μl/well) into Greiner Bio-One CELLSTAR 96-well polystyrene flat bottom cell culture microplate (Thermo Fisher Scientific Cat. #07-000-162) at a density of 10,000 cells/well. Cells were incubated for 16 hours at 37° C. at 5% CO2. Compound dilution plates were prepared in 96-well, clear U-bottom, polypropylene plates (Corning 3365) in 100% DMSO at 10 mM stock concentration in duplicate, using 10-point serial dilution (1:3). Compounds were diluted to 1:200 in growth medium and 25 μl from intermediate compound plates were added to each well of the cell plates using a Beckman FX liquid handling system such that the highest compound concentration tested was 10 μM final, with a 0.1% final DMSO concentration in the total volume of 125 μl. Plates were incubated for 24 hours at 37° C. and 5% CO2. Plates were centrifuged at 2500 rpm for 5 minutes and medium was removed. 100 μL 0.4N HCL (Thermo Fisher Scientific Cat #SA56-1) was added to each well and plates were shaken for 60 minutes at 4C to lyse cells. 38ul 0.4N Sodium phosphase dibasic pH12.5 (Thermo Fisher Scientific Cat #S375-212) containing 2 mM Sodium Butyrate (Millipore TR1008G) and 3 mM Phenylmethanesulfonyl-fluoride (Sigma 93482) was added to each well to neutralize lysates.
Cell lysate plates were mixed for 5 minutes at room temperature on shaker and immediately frozen at −80C overnight. Cell lysates were thawed and 50 μL/well was transferred to ELISA plates (Total Histone H3 mouse (Cell Signaling Technology Cat #14269) mAb-coated Corning 1×8 strip-well, white, 96-well plates (Corning 2485)). After 2 hours room temperature incubation, plates were washed six times with PBS/0.05% Tween Wash Buffer using a BioTek plate washer. 50 μL of Histone H3K9AC rabbit detection mAb (Cell Signaling Technology Cat #9649S) diluted 1:1000 in blocking buffer (Thermo Fisher Scientific Cat #37542) was added to each well and incubated for 2 hours at room temperature. After washing, 50 μL anti-rabbit IgG, HRP-Linked antibody (Cell Signaling Technology Cat #7074) diluted 1:1000 in blocking buffer was added to each well and incubated for 60 minutes at room temperature. Following incubation, plates were washed as described above. 50 μL of luminescent GLO substrate reagent (R&D System Cat #DY993) was added to each well and incubated for 10 minutes at room temperature. Plates were read on the PHERAstar plate reader using the 96-well with Luminescent reading mode. IC50 values were calculated using a four-parameter fit with GraphPad Prism version 9.5.1 or in-house modified IDBS ActivityBase data analyzing package.

KAT2A = KAT2A (Homo sapiens (Human), UniProt Q92830); experiment: KAT2A acetyltransferase biochemical assay (RapidFire mass spectrometry, AcCoA to CoA)
[1] = read-out: KAT2A Ki at 1 μM AcCoA, 5 μM H3 1-21 peptide, 0.5 nM KAT2A, 90-minute reaction
[2] = Homo sapiens, HT-1080, H3K9AC sandwich ELISA
[3] = KAT2A Ki at 1 μM AcCoA, 5 μM H3 1-21 peptide, 0.5 nM KAT2A, 90-minute reaction

Sequence of KAT2A (Q92830 whole entry): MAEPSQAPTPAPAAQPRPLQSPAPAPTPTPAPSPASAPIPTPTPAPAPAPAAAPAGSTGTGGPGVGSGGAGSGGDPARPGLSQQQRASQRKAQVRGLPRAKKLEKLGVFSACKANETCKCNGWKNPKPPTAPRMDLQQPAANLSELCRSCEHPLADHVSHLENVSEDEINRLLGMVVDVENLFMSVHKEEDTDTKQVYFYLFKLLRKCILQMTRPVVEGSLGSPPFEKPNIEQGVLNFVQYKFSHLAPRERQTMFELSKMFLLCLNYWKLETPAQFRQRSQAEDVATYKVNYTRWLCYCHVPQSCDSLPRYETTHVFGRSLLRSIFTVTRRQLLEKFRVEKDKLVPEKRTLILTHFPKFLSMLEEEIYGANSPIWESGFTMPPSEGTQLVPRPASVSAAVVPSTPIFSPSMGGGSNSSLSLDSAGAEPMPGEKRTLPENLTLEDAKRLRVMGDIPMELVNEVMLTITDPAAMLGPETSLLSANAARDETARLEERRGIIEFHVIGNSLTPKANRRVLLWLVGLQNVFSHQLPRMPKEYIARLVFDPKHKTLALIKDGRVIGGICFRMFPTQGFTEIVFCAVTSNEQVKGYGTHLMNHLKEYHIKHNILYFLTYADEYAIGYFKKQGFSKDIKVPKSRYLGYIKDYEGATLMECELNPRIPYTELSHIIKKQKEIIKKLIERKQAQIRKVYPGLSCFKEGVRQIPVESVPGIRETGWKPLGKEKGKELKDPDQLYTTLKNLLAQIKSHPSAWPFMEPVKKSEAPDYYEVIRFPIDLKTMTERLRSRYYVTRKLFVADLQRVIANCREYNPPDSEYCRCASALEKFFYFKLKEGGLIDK

Structure (SMILES): CN1CC(C)(C)C[C@H]1C(=O)N[C@H]1C[C@H](Oc2cccc(CC(=O)O)c2-c2cccc(F)c2C2CCC2)C[C@H]1O (atropisomer, axis not shown) [Example K6, [(1ψ)-2′-cyclobutyl-3′-fluoro-6-({(1S,3R,4S)-3-hydroxy-4-[(1,4,4-trimethyl-L-prolyl)amino]cyclopentyl}oxy)[1,1′-biphenyl]-2-yl]acetic acid]
- IC50 (H3K9AC (HT1080 cells); H3K9AC sandwich ELISA): 5.73 nM
- Ki (KAT2A; [1]): 1.13 nM

Structure (SMILES): CC1(C)C[C@@](F)(C(=O)N[C@@H]2CC[C@@H](Oc3ccc(C(C)(C)C(=O)O)cc3-c3cccc(F)c3C3CCC3)C2)CN1 (single isomer, unassigned) [Example A3]
- IC50 (H3K9AC (HT1080 cells); [2]): > 10000 nM
- Ki (KAT2A; [1]): 1440 nM

Structure (SMILES): CC[C@](C)(C(=O)O)c1ccc(O[C@@H]2CC[C@@H](NC(=O)[C@]3(F)CNC4(CCC4)C3)C2)c(-c2cccc(F)c2C2CCC2)c1 (single isomer, unassigned) [Example A10]
- IC50 (H3K9AC (HT1080 cells); H3K9AC sandwich ELISA): > 1000 nM
- Ki (KAT2A; [1]): > 1000 nM

Structure (SMILES): CC[C@](C)(C(=O)O)c1ccc(O[C@@H]2CC[C@@H](NC(=O)[C@]3(F)CNC4(CCC4)C3)C2)c(-c2cccc(F)c2C2CCC2)c1 (single isomer, unassigned) [Example A11]
- IC50 (H3K9AC (HT1080 cells); H3K9AC sandwich ELISA): > 1000 nM
- Ki (KAT2A; [1]): > 1000 nM

Structure (SMILES): CC1(C)C[C@@](F)(C(=O)N[C@@H]2CC[C@@H](Oc3ccc(C(=O)O)cc3-c3cccc(F)c3C3CCC3)C2)CN1 (single isomer, unassigned) [Example A13]
- IC50 (H3K9AC (HT1080 cells); H3K9AC sandwich ELISA): > 1000 nM
- Ki (KAT2A; [1]): 96 nM

Structure (SMILES): CC1(C)CNC[C@](F)(C(=O)N[C@@H]2CC[C@@H](Oc3ccc(C(C)(C)C(=O)O)cc3-c3cccc(F)c3C3CCC3)C2)C1 (single isomer, unassigned) [Example A15]
- IC50 (H3K9AC (HT1080 cells); H3K9AC sandwich ELISA): 296 nM
- Ki (KAT2A; [1]): > 1000 nM

Structure (SMILES): O=C(O)Cc1ccc(O[C@@H]2CC[C@@H](NC(=O)[C@@]3(F)CNC4(CCCC4)C3)C2)c(-c2cccc(F)c2C2CCC2)c1 (single isomer, unassigned) [Example A26]
- IC50 (H3K9AC (HT1080 cells); H3K9AC sandwich ELISA): 95.6 nM
- Ki (KAT2A; [1]): 29.1 nM

Structure (SMILES): CC(C)(C(=O)O)c1ccc(O[C@@H]2CC[C@@H](NC(=O)[C@@]3(F)CNCC4(CCC4)C3)C2)c(-c2cccc(F)c2C2CCC2)c1 (single isomer, unassigned) [Example A28]
- IC50 (H3K9AC (HT1080 cells); H3K9AC sandwich ELISA): 53.6 nM
- Ki (KAT2A; [1]): 1.41 nM

Structure (SMILES): O=C(O)c1ccc(O[C@@H]2CC[C@@H](NC(=O)[C@@]3(F)CNCC4(CCC4)C3)C2)c(-c2cccc(F)c2C2CCC2)c1 (single isomer, unassigned) [Example A33]
- IC50 (H3K9AC (HT1080 cells); H3K9AC sandwich ELISA): > 1000 nM
- Ki (KAT2A; [1]): > 99.9 nM

Structure (SMILES): O=C(O)c1ccc(O[C@@H]2CC[C@@H](NC(=O)[C@@]3(F)CNC4(CCCC4)C3)C2)c(-c2cccc(F)c2C2CCC2)c1 (single isomer, unassigned) [Example A35]
- IC50 (H3K9AC (HT1080 cells); H3K9AC sandwich ELISA): > 1000 nM
- Ki (KAT2A; [1]): > 99.9 nM

Structure (SMILES): CC1(C)CNC[C@](F)(C(=O)N[C@@H]2CC[C@@H](Oc3ccc(C(=O)O)cc3-c3cccc(F)c3C3CCC3)C2)C1 (single isomer, unassigned) [Example A37]
- IC50 (H3K9AC (HT1080 cells); H3K9AC sandwich ELISA): > 1000 nM
- Ki (KAT2A; [1]): 0.02 nM

Structure (SMILES): CCS(=O)(=O)NC(=O)C(C)(C)c1ccc(O[C@@H]2CC[C@@H](NC(=O)C3(F)CNC4(CCC4)C3)C2)c(-c2cccc(F)c2C2CCC2)c1 (single isomer, unassigned) [Example B1]
- IC50 (H3K9AC (HT1080 cells); H3K9AC sandwich ELISA): 562 nM
- Ki (KAT2A; [3]): 80.5 nM

Structure (SMILES): CC(C)(C(=O)NS(=O)(=O)N1CC(F)C1)c1ccc(O[C@@H]2CC[C@@H](NC(=O)[C@]3(F)CNC4(CCC4)C3)C2)c(-c2cccc(F)c2C2CCC2)c1 (single isomer, unassigned) [Example B6]
- IC50 (H3K9AC (HT1080 cells); [2]): > 1000 nM
- Ki (KAT2A; [1]): 746 nM

Structure (SMILES): CN1C[C@@](F)(C(=O)N[C@@H]2CC[C@@H](Oc3ccc(C(C)(C)C(=O)NS(C)(=O)=O)cc3-c3cccc(F)c3C3CCC3)C2)CC1(C)C (single isomer, unassigned) [Example B8]
- IC50 (H3K9AC (HT1080 cells); [2]): > 1000 nM
- Ki (KAT2A; [1]): 716 nM

Structure (SMILES): CC(C)(C(=O)NS(=O)(=O)N1CC(F)(F)C1)c1ccc(O[C@@H]2CC[C@@H](NC(=O)[C@]3(F)CNC4(CCC4)C3)C2)c(-c2cccc(F)c2C2CCC2)c1 (single isomer, unassigned) [Example B10]
- IC50 (H3K9AC (HT1080 cells); [2]): 15.7 nM
- Ki (KAT2A; [1]): 0.15 nM

Structure (SMILES): CC(C)S(=O)(=O)NC(=O)C(C)(C)c1ccc(O[C@@H]2CC[C@@H](NC(=O)[C@@]3(F)CNC4(CCCC4)C3)C2)c(-c2cccc(F)c2C2CCC2)c1 (single isomer, unassigned) [Example B24]
- IC50 (H3K9AC (HT1080 cells); [2]): 0.9 nM
- Ki (KAT2A; [1]): 0.09 nM

Structure (SMILES): CCS(=O)(=O)NC(=O)C(C)(C)c1ccc(O[C@@H]2CC[C@@H](NC(=O)[C@@]3(F)CNCC4(CCC4)C3)C2)c(-c2cccc(F)c2C2CCC2)c1 (single isomer, unassigned) [Example B32]
- IC50 (H3K9AC (HT1080 cells); H3K9AC sandwich ELISA): 18.2 nM
- Ki (KAT2A; [1]): 0.85 nM

Structure (SMILES): CC1(C)C[C@](F)(C(=O)N[C@@H]2CC[C@@H](Oc3ccc(C(C)(C)C(=O)NS(=O)(=O)N4CCC4)cc3-c3cccc(F)c3C3CCC3)C2)CN1 (single isomer, unassigned) [Example C8]
- IC50 (H3K9AC (HT1080 cells); [2]): 142 nM
- Ki (KAT2A; [1]): 13.6 nM

Structure (SMILES): CC(C)(C(=O)NS(C)(=O)=O)c1ccc(O[C@@H]2CC[C@@H](NC(=O)[C@@]3(F)CNC4(CCC4)C3)C2)c(-c2cccc(F)c2C2CC2)c1 (single isomer, unassigned) [Example C13]
- IC50 (H3K9AC (HT1080 cells); [2]): 942 nM
- Ki (KAT2A; [1]): 23.4 nM

Structure (SMILES): CC(C)(C(N)=O)c1ccc(O[C@@H]2CC[C@@H](NC(=O)[C@]3(F)CNC4(CCC4)C3)C2)c(-c2cccc(F)c2C2CCC2)c1 (single isomer, unassigned) [Example C15]
- IC50 (H3K9AC (HT1080 cells); [2]): > 1000 nM
- Ki (KAT2A; [1]): 1270 nM

Structure (SMILES): CCS(=O)(=O)NC(=O)Cc1ccc(O[C@@H]2CC[C@@H](NC(=O)[C@@]3(F)CNC4(CCC4)C3)C2)c(-c2cccc(F)c2C2CCC2)c1 (single isomer, unassigned) [Example C32]
- IC50 (H3K9AC (HT1080 cells); [2]): 40.8 nM
- Ki (KAT2A; [1]): 4.51 nM

Structure (SMILES): CC(C)S(=O)(=O)NC(=O)Cc1ccc(O[C@@H]2CC[C@@H](NC(=O)[C@]3(F)CNC4(CCC4)C3)C2)c(-c2cccc(F)c2C2CCC2)c1 (single isomer, unassigned) [Example C41]
- IC50 (H3K9AC (HT1080 cells); H3K9AC sandwich ELISA): 39.8 nM
- Ki (KAT2A; [3]): 4.1 nM

Structure (SMILES): CCc1c(F)cccc1-c1cc(C(C)(C)C(=O)NS(=O)(=O)C(C)C)ccc1O[C@@H]1CC[C@@H](NC(=O)[C@@]2(F)CNCC(C)(C)C2)C1 (single isomer, unassigned) [Example C44]
- IC50 (H3K9AC (HT1080 cells); H3K9AC sandwich ELISA): > 1000 nM
- Ki (KAT2A; [1]): > 99.9 nM

Structure (SMILES): CCc1c(F)cccc1-c1cc(CC(=O)NS(=O)(=O)C2(C)CC2)ccc1O[C@@H]1CC[C@@H](NC(=O)[C@@]2(F)CNCC(C)(C)C2)C1 (single isomer, unassigned) [Example C56]
- IC50 (H3K9AC (HT1080 cells); H3K9AC sandwich ELISA): > 1000 nM
- Ki (KAT2A; [1]): > 99.9 nM

Structure (SMILES): CCS(=O)(=O)NC(=O)Cc1ccc(O[C@@H]2CC[C@@H](NC(=O)[C@@]3(F)CNCC4(CCC4)C3)C2)c(-c2cccc(F)c2C2CCC2)c1 (single isomer, unassigned) [Example C59]
- IC50 (H3K9AC (HT1080 cells); H3K9AC sandwich ELISA): 440 nM
- Ki (KAT2A; [1]): 12.1 nM
